Reference: article PMC10674894 (Viruses, 2023)

Assays:
Vero cells = assay: Cytotoxicity MTT assay in Vero cells (MNTD, CC50); format: cell-based, African green monkey
CHIKV DRDE-07 = assay: In vitro screening against CHIKV (CPE inhibition and MTT cell viability); format: cell-based, chikungunya virus; conditions: for % Cell viability / CPE: Table S1, CHIKV-infected Vero cells; for % Cell viability / Cell Viability: 72 hpi; for % Cell viability: MTT assay; for CPE: arbitrary score of cytopathic effect at >48 hpi; for Cell Viability: CHIKV-infected Vero cells treated at MNTD, MTT, cell control + DMSO = 100%
[1] = maximum nontoxic dose in Vero cells, MTT

Row | SMILES | MNTD (Vero cells; Table S1, Vero cells) [µM] | % Cell viability (CHIKV DRDE-07) [%] | CPE (CHIKV DRDE-07) | MNTD (Vero cells; [1]) [µM] | Cell Viability (CHIKV DRDE-07) [%]
1 | Clc1cccc(C2c3c(ccc4ccccc34)Oc3ccc4ccccc4c32)c1 [DCR116, 2‐(3‐chlorophenyl)‐13‐oxapentacyclo[12.8.0.0³,¹².0⁴,⁹.0¹⁷,²²]docosa‐1(14),3,5,7,9,11,15,17(22),18,20‐decaene] | 31.25 | 10.84 | ++++ (>60% (++++)) | – | –
2 | Fc1ccc(C2c3c(ccc4ccccc34)Oc3ccc4ccccc4c32)cc1 [DCR117, 2‐(4‐fluorophenyl)‐13‐oxapentacyclo[12.8.0.0³,¹².0⁴,⁹.0¹⁷,²²]docosa‐1(14),3,5,7,9,11,15,17(22),18,20‐decaene] | 125 | 14.01 | ++++ (>60% (++++)) | – | –
3 | CCc1ccc(C2c3c(ccc4ccccc34)Oc3ccc4ccccc4c32)cc1 [DCR118, 2‐(4‐ethylphenyl)‐13‐oxapentacyclo[12.8.0.0³,¹².0⁴,⁹.0¹⁷,²²]docosa‐1(14),3,5,7,9,11,15,17(22),18,20‐decaene] | 31.25 | 14.23 | ++++ (>60% (++++)) | – | –
4 | Fc1cccc(C2c3c(ccc4ccccc34)Oc3ccc4ccccc4c32)c1 [DCR119, 2‐(3‐fluorophenyl)‐13‐oxapentacyclo[12.8.0.0³,¹².0⁴,⁹.0¹⁷,²²]docosa‐1(14),3,5,7,9,11,15,17(22),18,20‐decaene] | 31.25 | 18.74 | ++++ (>60% (++++)) | – | –
5 | CC(C)C1c2c(ccc3ccccc23)Oc2ccc3ccccc3c21 [DCR120, 2‐(propan‐2‐yl)‐13‐oxapentacyclo[12.8.0.0³,¹².0⁴,⁹.0¹⁷,²²]docosa‐1(14),3,5,7,9,11,15,17(22),18,20‐decaene] | 31.25 | 19.24 | ++++ (>60% (++++)) | – | –
6 | c1cncc(C2c3c(ccc4ccccc34)Oc3ccc4ccccc4c32)c1 [DCR121, 3‐{13‐oxapentacyclo[12.8.0.0³,¹².0⁴,⁹.0¹⁷,²²]docosa‐1(14),3,5,7,9,11,15,17(22),18,20‐decaen‐2‐yl}pyridine] | 31.25 | 8.03 | ++++ (>60% (++++)) | – | –
7 | CC1(C)CC(=O)C2=C(C1)OC1=C(C(=O)CC(C)(C)C1)C2c1ccc(Cl)cc1 [DCR122, 9‐(4‐chlorophenyl)‐3,3,6,6‐tetramethyl‐2,3,4,5,6,7,8,9‐octahydro‐1H‐xanthene‐1,8‐dione] | 31.25 | 11.09 | ++++ (>60% (++++)) | – | –
8 | CC1(C)CC(=O)C2=C(C1)OC1=C(C(=O)CC(C)(C)C1)C2c1cccc(O)c1 [DCR123, 9‐(3‐hydroxyphenyl)‐3,3,6,6‐tetramethyl‐2,3,4,5,6,7,8,9‐octahydro‐1H‐xanthene‐1,8‐dione] | 125 | 12.01 | ++++ (>60% (++++)) | – | –
9 | CC1(C)CC(=O)C2=C(C1)OC1=C(C(=O)CC(C)(C)C1)C2c1ccccc1Cl [DCR124, 9‐(2‐chlorophenyl)‐3,3,6,6‐tetramethyl‐2,3,4,5,6,7,8,9‐octahydro‐1H‐xanthene‐1,8‐dione] | 125 | 11.05 | ++++ (>60% (++++)) | – | –
10 | COc1cccc(C2C3=C(CC(C)(C)CC3=O)OC3=C2C(=O)CC(C)(C)C3)c1 [DCR125, 9‐(3‐methoxyphenyl)‐3,3,6,6‐tetramethyl‐2,3,4,5,6,7,8,9‐octahydro‐1H‐xanthene‐1,8‐dione] | 125 | 11.19 | ++++ (>60% (++++)) | – | –
11 | CC1(C)CC(=O)C2=C(C1)OC1=C(C(=O)CC(C)(C)C1)C2c1ccc([N+](=O)[O-])cc1 [DCR126, 3,3,6,6‐tetramethyl‐9‐(4‐nitrophenyl)‐2,3,4,5,6,7,8,9‐octahydro‐1H‐xanthene‐1,8‐dione] | 15.6 | 17.99 | ++++ (>60% (++++)) | – | –
12 | Cc1ccc(C2C3=C(CC(C)(C)CC3=O)OC3=C2C(=O)CC(C)(C)C3)cc1 [DCR127, 3,3,6,6‐tetramethyl‐9‐(4‐methylphenyl)‐2,3,4,5,6,7,8,9‐octahydro‐1H‐xanthene‐1,8‐dione] | 125 | 10.21 | ++++ (>60% (++++)) | – | –
13 | COc1ccc(C2C3=C(CC(C)(C)CC3=O)OC3=C2C(=O)CC(C)(C)C3)cc1 [DCR128, 9‐(4‐methoxyphenyl)‐3,3,6,6‐tetramethyl‐2,3,4,5,6,7,8,9‐octahydro‐1H‐xanthene‐1,8‐dione] | 125 | 11.01 | ++++ (>60% (++++)) | – | –
14 | CC1(C)CC(=O)C2=C(C1)OC1=C(C(=O)CC(C)(C)C1)C2c1cccc([N+](=O)[O-])c1 [DCR129, 3,3,6,6‐tetramethyl‐9‐(3‐nitrophenyl)‐2,3,4,5,6,7,8,9‐octahydro‐1H‐xanthene‐1,8‐dione] | 31.25 | 16.85 | ++++ (>60% (++++)) | – | –
15 | CCOc1cc(C2C3=C(CC(C)(C)CC3=O)OC3=C2C(=O)CC(C)(C)C3)ccc1O [DCR130, 9‐(3‐ethoxy‐4‐hydroxyphenyl)‐3,3,6,6‐tetramethyl‐2,3,4,5,6,7,8,9‐octahydro‐1H‐xanthene‐1,8‐dione] | 15.6 | 17.21 | ++++ (>60% (++++)) | – | –
16 | COc1cc(Br)cc(C2C3=C(CC(C)(C)CC3=O)OC3=C2C(=O)CC(C)(C)C3)c1 [DCR131, 9‐(3‐bromo‐5‐methoxyphenyl)‐3,3,6,6‐tetramethyl‐2,3,4,5,6,7,8,9‐octahydro‐1H‐xanthene‐1,8‐dione] | 125 | 8.01 | ++++ (>60% (++++)) | – | –
17 | CC1(C)CC(=O)C2=C(C1)OC1=C(C(=O)CC(C)(C)C1)C2c1ccccn1 [DCR132, 3,3,6,6‐tetramethyl‐9‐(pyridin‐2‐yl)‐2,3,4,5,6,7,8,9‐octahydro‐1H‐xanthene‐1,8‐dione] | 125 | 9.06 | ++++ (>60% (++++)) | – | –

Row | SMILES | MNTD (Vero cells; Table S1, Vero cells) [µM] | % Cell viability (CHIKV DRDE-07) [%] | CPE (CHIKV DRDE-07) | MNTD (Vero cells; [1]) [µM] | Cell Viability (CHIKV DRDE-07) [%]
18 | CC1(C)CC(=O)C2=C(C1)OC1=C(C(=O)CC(C)(C)C1)C2c1ccc(C2C3=C(CC(C)(C)CC3=O)OC3=C2C(=O)CC(C)(C)C3)cc1 [DCR133, 3,3,6,6‐tetramethyl‐9‐[4‐(3,3,6,6‐tetramethyl‐1,8‐dioxo‐dodecahydro‐1H‐xanthen‐9‐yl)phenyl]‐2,3,4,5,6,7,8,9‐octahydro‐1H‐xanthene‐1,8‐dione] | 125 | 11.14 | ++++ (>60% (++++)) | – | –
19 | N#Cc1ccccc1N1CCCCC1 [DCR140, 2-Piperidin-1-yl-benzonitrile] | 250 | 14.97 | ++++ (>60% (++++)) | – | –
20 | N#Cc1c(F)cccc1N1CCCCC1 [DCR141, 2-Fluoro-6-piperidin-1-yl-benzonitrile] | 125 | 19.24 | ++++ (>60% (++++)) | – | –
21 | CC1CN(c2ccccc2C#N)CC(C)N1 (centres unmarked) [DCR142, 2-(3,5-Dimethyl-piperazin-1-yl)-benzonitrile] | 125 | 13.08 | ++++ (>60% (++++)) | – | –
22 | COc1cccc(N2CCCCC2)c1C#N [DCR143, 2-Methoxy-6-piperidin-1-yl-benzonitrile] | 125 | 17.42 | ++++ (>60% (++++)) | – | –
23 | O=[N+]([O-])c1ccc(N2CCCCC2)c([N+](=O)[O-])c1 [DCR144, 1-(2,4-Dinitro-phenyl)-piperidine] | 125 | 25.21 | ++++ (>60% (++++)) | – | –
24 | N#Cc1cc(F)ccc1N1CCCCC1 [DCR145, 5-Fluoro-2-piperidin-1-yl-benzonitrile] | 125 | 0 | ++++ (>60% (++++)) | – | –
25 | N#Cc1ccccc1N1CCOCC1 [DCR146, 2-Morpholin-4-yl-benzonitrile] | 250 | -3.98 | ++++ (>60% (++++)) | – | –
26 | N#Cc1ccccc1NCc1ccccc1 [DCR147, 2-Benzylamino-benzonitrile] | 125 | 17.97 | ++++ (>60% (++++)) | – | –
27 | CC1CN(c2ccc(C#N)c(Cl)c2)CC(C)N1 (centres unmarked) [DCR148, 2-Chloro-4-(3,5-dimethyl-piperazin-1-yl)-benzonitrile] | 125 | 14.42 | ++++ (>60% (++++)) | – | –
28 | CC1CN(c2ccc(C(=N)NO)c(Cl)c2)CC(C)N1 (centres unmarked) [DCR149, 2-Chloro-4-(3,5-dimethyl-piperazin-1-yl)-N-hydroxy-benzamidine] | 125 | -21.8 | ++++ (>60% (++++)) | – | –
29 | N#Cc1ccc(N2CCN(CCO)CC2)cc1N1CCN(CCO)CC1 [DCR150, 2,4-Bis-[4-(2-hydroxy-ethyl)-piperazin-1-yl]-benzonitrile] | 62.5 | 18.09 | ++++ (>60% (++++)) | – | –
30 | Brc1cc2c(c3ncccc13)Oc1ncccc1O2 [DCR 1, 5-bromo-7,12-dioxa-1,11-diaza-benzo[a]anthracene] | 50 | – | ++ (50-30% (++)) | 50 | 72
31 | Brc1cc2c(c3ncccc13)Oc1cc(Br)c3cccnc3c1O2 [DCR 2, 5,12-dibromo-[1,4]dioxino[2,3-h:5,6-h’]diquinoline] | 50 | – | ++ (50-30% (++)) | 50 | 63
32 | Clc1ncccc1Oc1cc2c(c3ncccc13)Oc1ncccc1O2 [DCR 3, 7-[(2-chloropridin-3-yl)oxy]-5,12-dioxa-1,11-diazatetraphene] | 50 | – | ++ (50-30% (++)) | 50 | 69.9
33 | Nc1nc(N)c2ccccc2n1 [DCR 134, Quinazoline-2,4-diamine] | 150 | – | + (<30%) | 150 | 75.9
34 | Nc1nc(N)c2c(F)cccc2n1 [DCR 135, 5-fluoro-quinazoline-2,4-diamine] | 250 | – | ++ (50-30% (++)) | 250 | 61
